According to patent publication US20180028480A1, “METHODS OF REDUCING OR PREVENTING OXIDATIVE MODIFICATION OF MEMBRANE POLYUNSATURATED FATTY ACIDS” (Amarin Pharmaceuticals Ireland Limited, priority 2015, published 2018):

Key:
[1] = system: lipid vesicles enriched with PUFAs and cholesterol; test: Glucose-induced membrane lipid peroxidation (LOOH) in DLPC/cholesterol multilamellar vesicles (Example 4); type: biochemical; conditions: each at 1.0 μM; glucose 200 mg/dL; 96 hours
Protocol: Vitamin E (α-tocopherol) was also purchased from Sigma-Aldrich and prepared in ethanol at 1.0 mM (ε32 3.06×10^4 M^−1 cm^−1 at 294 nm) just prior to experimental use. […] All test compounds were further diluted in ethanol or aqueous buffer as needed. Glucose was prepared in saline buffer (0.5 mM HEPES, 154 mM NaCl, pH 7.3) at 11.0 mM (200 mg/dL). CHOD-iodide color reagent (stock) was prepared, with slight modification, as described by from El-Saadani et al. (J. […] Prior to experimental use, the CHOD reagent was activated by adding 24 μM ethylenediaminetetraacetic acid (EDTA), 20 μM butylated hydroxytoluene (BHT), and 0.2% Triton X-100. Multilamellar vesicles (MLVs) were prepared as binary mixtures of DLPC (1.0 or 2.5 mg total phospholipid per sample) and cholesterol at a fixed cholesterol-to-phospholipid (C/P) mole ratio of 0.6:1. Component lipids (in chloroform) were transferred to 13×100 mm borosilicate culture tubes and combined with vehicle (ethanol) or an equal volume of fatty acid, vitamin E, or ATM stock solutions, each adjusted to achieve desired treatment concentrations. Samples were shell-dried under nitrogen gas and placed under vacuum for 1 h to remove residual solvent. […] Lipid suspensions were then vortexed for 3 min at ambient temperature to form MLVs. All MLV samples were subjected to time-dependent autoxidation by incubating at 37° C. in an uncovered, shaking water bath. This method allows lipid peroxidation to occur gradually without requiring the use of exogenous initiators. Small aliquots (5-100 μL) of each sample were removed, immediately following MLV preparation (0 hour) and after exposing samples to oxidative conditions for 72 or 96 hour, and combined with 1.0 mL of activated CHOD-iodide color reagent. Aliquot volume was reduced with each successive time point to ensure that spectrophotometric readings were within the optimal adsorption range. Test samples were covered and incubated in darkness at room temperature for at least 4 hr. Sample absorbances were then measured against a CHOD blank at 365 nm using a Beckman DU-640 spectrophotometer. The CHOD colorimetric assay is based on the oxidation of iodide (I^−) by lipid hydroperoxide (LOOH) to form triiodide (I3^−), the quantity of which is directly proportional to the amount of LOOH present in the lipid sample. The molar absorptivity (c) of I3^− is 2.46×10^4 M^−1 cm^−1 at 365 nm. […] The concentration of glucose selected was consistent with previous experimental studies of hyperglycemia under controlled laboratory conditions or observed in well-defined animal models of Type II diabetes following a glucose challenge. […] Values in FIG. 1 are mean±S.D. (N=6). […]

[2] = Fluorescence anisotropy, DPH apparent rotational correlation time (Example 8); conditions: POPC, 0 or 50 mol % cholesterol; increasing omega-3 fatty acid concentrations (FIGS. 16A-16B)
Excerpt: FIGS. 16A-16B show the dose-dependent effects of EPA and DHA on the ARCT measured for DPH in POPC membranes prepared at either 0 or 50 mol % cholesterol. †p=0.0331 versus cognate DHA treatment (5 mol % omega-3 fatty acids (O3FA), no cholesterol); ^§p=0.0016 versus cognate DHA treatment (5 mol % O3FA, 50 mol % cholesterol); ^‡p=0.0032 versus cognate DHA treatment (10 mol % O3FA, 50 mol % cholesterol) (unpaired, two-tailed Student's t-test). Values are mean±S.D. (N=3).
Fluorescence anisotropy experiments were conducted using large unilamellar vesicles (LUVs) of 100 nm diameter of either POPC (or POPC/cholesterol) containing increasing concentrations of EPA or DHA and 1 mol % DPH fluorescent. Briefly, 640 nmol of total lipid (phospholipid and sterol) and 6.4 nmol of fluorescent probe was mixed well and dried under a stream of nitrogen while being warmed gently at 35° C. […]
In order to ensure that the anisotropy values measured for DPH are not influenced by lifetime-induced artifacts, the apparent (average) rotational correlation times (ARCT) were calculated using Perrin's equation: […]
where r0 is the limiting anisotropy of DPH, r is the steady state anisotropy, and is the mean fluorescence lifetime.

[3] = X-ray diffraction of cholesterol-enriched POPC membranes without oxidative conditions (Example 8); conditions: 5 mol %; 50 mol % cholesterol; 15° C., 20° C., 30° C. (FIG. 18)
Protocol: Values are mean±S.D. (N=3).
FIGS. 18A-18C show representative x-ray diffraction patterns collected from cholesterol-enriched model membranes treated with vehicle (control), eicosapentaenoic acid (EPA), or docosahexaenoic acid (DHA) and examined at 15° C., 20° C., and 30° C. Membranes were reconstituted from POPC and cholesterol at 50 mol % cholesterol and treated with each of the various agents at 5 mol % (to match treatments used in corresponding lipid dynamics experiments). Each sample was maintained at 74% relative humidity by exposing the samples to a saturated solution of L-(+) tartaric acid. […] DHA, but not EPA or vehicle, induced the formation of cholesterol domains, which are indicated by a distinct set of diffraction peaks (shaded peaks) having a characteristic d-space value of 34 Å and shown to be stable over a broad range of temperatures.
(§1) Multilamellar vesicles (MLVs) were prepared as binary mixtures of POPC and cholesterol at 50 mol %. MLVs with DLPC and cholesterol at cholesterol-to-phospholipid (C/P) mole ratios of 0.1:1 to 1.1:1 were also prepared in a similar manner. Component lipids (in chloroform) were transferred to borosilicate culture tubes and combined with vehicle (ethanol) or an equal volume of EPA, DHA, fenofibrate, niacin or gemfibrozil stock solution(s) and adjusted to achieve a drug-to-phospholipid (D/P) mole ratio of 1:30. Membranes reconstituted from POPC and cholesterol (at 50 mol % cholesterol) were treated with each of the various agents at 5 mol %. Samples were then shell-dried under nitrogen gas and placed under vacuum for 3 hours to remove residual solvent.
Membrane samples were oriented for x-ray diffraction analysis as described in Mason, et al., J. Biol. Chem., vol. 281, pages 9337-45 (2006). Briefly, 100 μL aliquots of each MLV preparation (containing 250 μg of phospholipid) were transferred to Lucite sedimentation cells fitted with a removable aluminum foil substrate designed to collect MLVs into a single membrane pellet upon centrifugation. […]

[4] = X-ray diffraction of glucose-treated DLPC/cholesterol membranes under oxidative conditions (Example 8); conditions: for effect on d-space values: 10.0 μM, 0.6 C/P, glucose-induced lipid peroxidation 72 hours (FIG. 14); for cholesterol domain peaks compared to samples treated with EPA: after 96 hours, C/P 0.6:1, drug-to-phospholipid 1:30
Protocol: Values are reported as mean±S.D. (N=3).
[…] Membranes were reconstituted from DLPC and cholesterol at a C/P mole ratio of 0.6:1 and treated with the various agents to achieve a total drug-to-phospholipid mole ratio of 1:30.
as §1
After drying, each sample was resuspended in glucose-free or glucose-containing saline buffer to yield a final phospholipid concentration of 2.5 mg/mL. Lipid suspensions were then vortexed for 3 minutes at ambient temperature to form MLVs.
Membrane samples were oriented for x-ray diffraction analysis as described in Mason, et al., J. Biol. Chem., vol. 281, pages 9337-45 (2006). Briefly, 100 μL aliquots of each MLV preparation (containing 250 μg of phospholipid) were transferred to Lucite sedimentation cells fitted with a removable aluminum foil substrate designed to collect MLVs into a single membrane pellet upon centrifugation. Samples were then loaded into a Sorvall AH-629 swinging bucket ultracentrifuge rotor (DuPont Corp., Wilmington, Del.) and centrifuged at 35,000 g, 5° C., for 1.5 hours.
Following membrane orientation, sample supernatants were aspirated and aluminum foil substrates mounted onto curved glass slides. The membrane samples were then placed in hermetically sealed containers in which temperature and relative humidity were controlled during x-ray diffraction analysis. Data reported in this study were collected at 20° C. and 74% relative humidity.
This technique allows for precise measurement of the unit cell periodicity, or d-space, of the membrane lipid bilayer, which is the distance from the center of one lipid bilayer to the next, including surface hydration.
The presence of cholesterol domains in a given membrane sample results in the production of distinct Bragg (diffraction) peaks that have singular periodicity values of 34 Å and 17 Å. These peaks are typically referred to as first- and second-order cholesterol domain peaks.

Row | SMILES | antioxidant effect (LOOH formation), separate treatments [1] | DPH apparent rotational correlation time / membrane fluidity [2] | membrane cholesterol domain formation [3] | effect on d-space values [4] | cholesterol domain peaks compared to samples treated with EPA [4]
1 | CC(C)c1c(C(=O)Nc2ccccc2O)c(-c2ccccc2)c(-c2ccc(F)cc2)n1CC[C@@H](O)C[C@@H](O)CC(=O)O [ATM, Atorvastatin ortho- (o-) hydroxy (active) metabolite, reference compound] | separate and potent antioxidant effects |  |  |  | 
2 | CC/C=C\C/C=C\C/C=C\C/C=C\C/C=C\C/C=C\CCC(=O)O [DHA, cis-4,7,10,13,16,19-docosahexaenoic acid, reference compound] |  | reduced DPH apparent rotational correlation time | induced formation of membrane cholesterol domains |  | 
3 | Cc1ccc(C)c(OCCCC(C)(C)C(=O)O)c1 [gemfibrozil] |  |  |  | significant reductions in d-space | disproportionately greater
4 | O=C(O)c1cccnc1 [niacin, nicotinic acid] |  |  |  | significant reductions in d-space | disproportionately greater
